Assay results: publication PMC12607897, “Inhibition of HIV-1 replication by primer RNA packaging inhibitors” (mBio, 2025)

Tests used:
[1] = tested on: HIV-1 NLENG1-IRES-GFP (NL4-3-GFP) virus in MT4 cells; assay: ex vivo HIV-1 replication assay, GFP expression by flow cytometry in infected MT4 cells (multiple cycles); assay type: cell-based; details: drug 10 µM, added 36–48 h after infection, read 72 h later
Description: To test this hypothesis, azelastine, lacidipine, and cilnidipine were used in an ex vivo assay to determine their effect on HIV-1 proliferation. MT4 cells were infected with NLENG1-IRES-GFP, a virus that allows for multiple cycles of infection, and the molecules were added to the medium 36–48 h after infection, before the completion of the first round of viral infection; 72 h after the drugs were added, when two rounds of HIV-1 infection were underway, the level of GFP fluorescence was determined by flow cytometry, as a marker of HIV-1 infection (Fig. 3, left panel). HIV-1 replication was inhibited in a dose-dependent manner. […]. […] At the same time, no drug toxicity was observed, as determined by the MTT assay (Fig. 3, right panel). […] The selectivity index (SI) ([24]) of the three drugs, defined as the ratio of 50% cytotoxic concentration (CC50; >20 µM) to 50% inhibitory concentration (IC50; ~5 µM), >4.
Fig 3 Effect of the inhibitors on HIV-1 replication and cell toxicity. MT4 cells were infected with NL4-3-GFP virus. Two days after infection, inhibitors were added to the culture medium at final concentrations of 1, 3.3, or 10 µM. The final concentration of DMSO was 0.1%. Five days after infection, GFP expression was quantified by flow cytometry, and cell viability was determined by the MTT assay. NInf corresponds to non-infected cells. Six independent experiments were performed, and standard deviations are shown. A Student t-test was used to determine statistical significance compared with the control experiment with DMSO (*: P < 0.001; **: P < 0.0001).
MT4 cell line ([26]) was maintained in RPMI 1640. HEK293T and HeLa-P4 cells ([27]) were maintained in Dulbecco’s modified Eagle medium (DMEM). All media were supplemented with Glutamax and with 10% heat-inactivated fetal calf serum (Hyclone) and 1% penicillin/streptomycin (100 units/mL) (Gibco). All media were purchased from Gibco (Life Technologies Co.). All cell lines used here were incubated at 37 °C, under 5% CO2 atmosphere. HIV-1 stocks were prepared by calcium phosphate-mediated transfection of HEK293T cells, as previously described ([22]), with shuttle vector plasmids encoding HIV-1 NL4-3 (GenBank: AF324493.1) or NLENG1-IRES-GFP ([28]). The latter vector comes from the HIV NL4-3 strain and contains a gfp-IRES-nef cassette at the nef locus. […].
For NL4-3-GFP vectors, viral infection is followed by GFP expression (i.e., the percentage and geometric mean fluorescence intensity [MFI] of GFP^+ cells). Infectivity was estimated by flow cytometry using a FACS Celesta flow cytometer (BD Biosciences). Toxicity is also assessed by flow cytometry (side and forward scatter).

mLysRS = mLysRS (Homo sapiens, UniProt Q15046); assay: tRNA aminoacylation assay; assay type: biochemical; details: drug added up to 1 mM
Sequence of mLysRS (Q15046 31-625 isoform Q15046-2): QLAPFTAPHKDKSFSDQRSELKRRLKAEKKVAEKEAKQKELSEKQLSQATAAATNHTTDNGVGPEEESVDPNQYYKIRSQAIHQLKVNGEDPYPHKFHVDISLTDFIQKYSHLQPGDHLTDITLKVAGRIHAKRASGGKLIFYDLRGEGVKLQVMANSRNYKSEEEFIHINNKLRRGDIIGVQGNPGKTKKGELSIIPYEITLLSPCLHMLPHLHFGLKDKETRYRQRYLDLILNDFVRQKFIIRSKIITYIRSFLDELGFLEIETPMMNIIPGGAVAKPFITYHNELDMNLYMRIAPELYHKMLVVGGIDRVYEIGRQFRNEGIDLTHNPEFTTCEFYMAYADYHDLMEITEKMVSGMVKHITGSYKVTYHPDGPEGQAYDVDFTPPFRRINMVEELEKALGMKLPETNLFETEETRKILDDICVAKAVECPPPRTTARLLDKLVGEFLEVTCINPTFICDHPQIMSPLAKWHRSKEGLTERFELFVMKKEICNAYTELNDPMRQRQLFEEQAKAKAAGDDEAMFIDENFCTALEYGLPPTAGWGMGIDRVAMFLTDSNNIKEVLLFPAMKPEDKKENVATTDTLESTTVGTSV
Description: Initial rates of tRNA aminoacylation were measured at 25°C in 0.1 mL of 20 mM Imidazole-HCl buffer (pH 7.5), 100 mM KCl, 0.5 mM DTT, 12 mM MgCl2, 2 mM ATP, 180 µM ^14C-labeled lysine (NEN; 16.66 Ci/mol), and saturating amounts of global yeast tRNA ([30]). The incubation mixture contained catalytic amounts (2 nM) of mLysRS appropriately diluted in 10 mM Tris-HCl (pH 7.5), 10 mM 2-mercaptoethanol, containing bovine serum albumin at 4 mg/mL. Inhibitors were added at final concentrations ranging from 3.9 to 1,000 µM. One unit of activity is the amount of enzyme producing 1 nmol of lysine-tRNA^Lys/min, at 25°C.
Fig. S5. Effect of inhibitors on mLysRS activity. The tRNA-aminoacylation activity of mLysRS
was determined in the presence of increasing concentrations of the drugs. Two independent
experiments were performed and standard deviations are shown.
Fig. 6. Raw data of quantification of minus-strand strong stop viral DNA and viral RNA by
digital PCR from viruses recovered after 72 h incubation in the presence of 10 µM of the drugs.

CN1CCCC(n2nc(Cc3ccc(Cl)cc3)c3ccccc3c2=O)CC1 (centres unmarked) [azelastine]
GFP fluorescence, % of the value observed when DMSO was added alone [1]: 15.2%
inhibition of Lysyl-tRNA^Lys synthesis (mLysRS): did not inhibit
